Assay results: patent publication US20150031697A1, “METHOD FOR PREVENTING ULTRAVIOLET RADIATION-INDUCED CUTANEOUS DAMAGE AND DEVELOPMENT OF SQUAMOUS CELL CARCINOMAS” (WISCONSIN ALUMNI RESEARCH FOUNDATION, priority 2013, published 2015)
Read-outs that look alike come from different tables or passages of the source.

Columns and labels:
[1] = clinical trials; cited from earlier work
UVR-induced hyperplasia [2] = experiment: Effect of topically applied Hsp90 inhibitors on UVR-induced hyperplasia (Table 3); for Effect on Hyperplasia, Mice 1 or Slide 1, 24 Hr. post UVR: key: +++ (positive effect); −−− (negative effect); −− (less negative); for Effect on Hyperplasia, Mice 2 or Slide 2, 24 Hr. post UVR: key: +++ (positive effect); −−− (negative effect); −− (less negative); for Effect on Hyperplasia, Mice 2 or Slide 2, 48 Hr. post UVR: key: +++ (positive effect); −−− (negative effect); −− (less negative); type: in vivo, SKH1 mice; set-up: Effect on Hyperplasia, Mice 2 or Slide 2, 24 Hr. post UVR / Effect on Hyperplasia, Mice 2 or Slide 2, 48 Hr. post UVR / Effect on Hyperplasia, Mice 1 or Slide 1, 24 Hr. post UVR / Effect on Hyperplasia, Mice 1 or Slide 1, 48 Hr. post UVR: key: +++ (positive effect); −−− (negative effect); −− (less negative); conditions: for Effect on Hyperplasia, Mice 2 or Slide 2, 24 Hr. post UVR / Effect on Hyperplasia, Mice 2 or Slide 2, 48 Hr. post UVR / Effect on Hyperplasia, Mice 1 or Slide 1, 24 Hr. post UVR / Effect on Hyperplasia, Mice 1 or Slide 1, 48 Hr. post UVR: SKH1 mice, topical; for Effect on Hyperplasia, Mice 2 or Slide 2, 24 Hr. post UVR: mouse 2, 24 Hr. post UVR; for Effect on Hyperplasia, Mice 2 or Slide 2, 48 Hr. post UVR: mouse 2, 48 Hr. post UVR; for Effect on Hyperplasia, Mice 1 or Slide 1, 24 Hr. post UVR: mouse 1, 24 Hr. post UVR; for Effect on Hyperplasia, Mice 1 or Slide 1, 48 Hr. post UVR: mouse 1, 48 Hr. post UVR
Hsp90 = conditions: cited from earlier work
[3] = test system: PKCε, Stat3, pStat3Tyr705, pStat3Ser727, Akt, pAktser473; experiment: Epidermal protein expression levels after UVR (Western blot); type: in vivo, PKCε-overexpressing transgenic mice
Experimental: PKCε-overexpressing transgenic mice (line 224) were exposed once to UVR (4 kJ/m2). […] Mice were sacrificed 24 hours post-UVR exposure. There were two mice per treatment point. Dorsal skin comprised excised, epidermal cell lysates prepared as described before (Aziz et al., 2007). […] PKCε-overexpressing transgenic mice (line 224) were exposed once to UVR (2 kJ/m2). […] Mice were sacrificed at 24 hours post-UVR exposure. There were three mice per treatment point. Dorsal skin comprised excised, epidermal cell lysates prepared as described before (Aziz et al., 2007). Pooled epidermal cell lysate was analyzed for PKCε expression level by western blot analysis (B). (C) Shown is the quantitation of the western blot (B).
Mouse skin was excised and scraped to remove subcutaneous fat. The epidermis was scraped off on an ice-cold glass plate, homogenized in lysis buffer [50 mmol/L HEPES, 150 mmol/L NaCl, 10% glycerol, 1% Triton X-100, 1.5 mmol/L MgCl2, 10 μg/m aprotinin, 10 μg/m leupeptin, 1 mmol/L phenylmethylsulfonyl fluoride (PMSF), 200 μmol/L Na3VO4, 200 μmol/L NaF, and 1 mmol/L EGTA (final pH 7.5)]. The homogenate was centrifuged at 14,000 g for 30 min at 4° C. […] The Western blots were quantitated by densitometric analysis using Totallab® Nonlinear Dynamic Image analysis software (Nonlinear USA, Inc., Durham, N.C.). […]

PKCε, Hsp90β, Hsp70 = experiment: Expression levels in uninvolved skin at end of SCC experiment; type: in vivo, SKH-1 hairless mice; conditions: SKH hairless mice
Experimental: (§1) The SKH-1 hairless mice (6-7 week old) were exposed to UVR. The UVR source was Kodacel-filtered FS-40 sun lamps (approximately 60% UVB and 40% UVA). Mice were exposed to UVR (1.8 kJ/m2) three times weekly (Monday, Wednesday and Friday). The mice in the vehicle group (n=18) received topical treatment of 200 μl vehicle (DMSO:acetone: 1:40 v/v) before and after each UVR exposures. […] Carcinomas were recorded grossly as downward-invading lesions, which were confirmed histologically. […] At the end of the experiment, mice were sacrificed. […] A part of the uninvolved dorsal skin was fixed for in 10% neutral-buffered formalin for histological examination. […] (D): A part of the uninvolved skin was also used to prepare total epidermal lysate to determine expression level of PKCε, Hsp90β, and Hsp70.
(§2) 4. […] Initial tumor induction experiment was performed with SKH-1 hairless mice.

[4] = cited from earlier work; for bioavailability: literature
[5] = HPLC analysis of 17AAG in serum and mouse epidermis after topical application; type: in vivo, mice (SKH-1 hairless, FVB)
Experimental: SKH hairless mice (6-7 weeks old) were exposed to UVR (1.8 kJ/m^2) three times weekly (Monday, Wednesday, and Friday). The mice in the vehicle group (n=3) received topical treatment of 200 μl vehicle (DMSO:acetone: 1:40 v/v) before and after UVR exposures. […] All mice were treated for 25 weeks and sacrificed at 1, 3, 6 and 24 hours following the last UVR exposure. (A) Blood samples were collected to analyze serum 17AAG by HPLC. […] Mice were sacrificed at 6 and 24 hours post-17AAG treatment. (B) Blood samples were collected for serum 17AAG analysis. (C) 17AAG level was also analyzed in the epidermal protein lysate. To prepare epidermal lysate, epidermis was scraped and homogenized in the lysis buffer. […] Each value is an average of duplicate samples. ND: Not detectable. Inset: Chemical structure of 17AAG.
Dorsal areas of the mice (6-7 week old) were shaved and depilated one day before the treatment. […] Blood samples were collected to detect 17AAG in serum. To prepare epidermal lysate, epidermis was removed and homogenized with the lysis buffer. 17-AAG levels in the serum and mouse epidermis were analyzed by HPLC (Shin, et al., 2012).
1. Topically applied 17AAG is distributed both in epidermis and serum.

Hsp90β-PKCε interaction = Hsp90β-PKCε interaction (Mus musculus, UniProt P11499); conditions: 500 nmol topical before and after one UVR exposure, 24 hours post-UVR
Chain of Hsp90β-PKCε interaction (P11499 2-724 limits assumed): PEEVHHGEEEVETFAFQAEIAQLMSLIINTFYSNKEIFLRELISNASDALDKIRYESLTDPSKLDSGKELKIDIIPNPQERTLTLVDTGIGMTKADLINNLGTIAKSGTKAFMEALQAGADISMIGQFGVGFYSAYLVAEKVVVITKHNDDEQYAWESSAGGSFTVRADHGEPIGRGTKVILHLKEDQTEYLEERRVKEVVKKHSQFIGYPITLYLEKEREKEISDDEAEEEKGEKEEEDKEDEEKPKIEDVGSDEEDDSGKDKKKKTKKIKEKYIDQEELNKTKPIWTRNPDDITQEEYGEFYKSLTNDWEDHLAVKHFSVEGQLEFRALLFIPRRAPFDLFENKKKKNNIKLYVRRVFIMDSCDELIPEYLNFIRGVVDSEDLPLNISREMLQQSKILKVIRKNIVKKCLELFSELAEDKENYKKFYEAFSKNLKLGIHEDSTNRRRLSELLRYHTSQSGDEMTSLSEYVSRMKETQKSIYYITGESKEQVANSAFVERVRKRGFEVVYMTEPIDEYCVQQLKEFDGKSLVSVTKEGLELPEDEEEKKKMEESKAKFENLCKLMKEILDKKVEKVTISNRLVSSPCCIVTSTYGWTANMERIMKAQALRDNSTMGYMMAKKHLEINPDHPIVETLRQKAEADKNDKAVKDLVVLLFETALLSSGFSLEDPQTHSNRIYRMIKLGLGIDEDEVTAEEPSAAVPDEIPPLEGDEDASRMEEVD
Experimental: PKCε-overexpressing transgenic mice (line 224) were exposed once to UVR (4 kJ/m2). […] Mice were sacrificed 24 hours post-UVR exposure. There were two mice per treatment point. Dorsal skin comprised excised, epidermal cell lysates prepared as described before (Aziz et al., 2007). Pooled epidermal cell lysate was analyzed for PKCε-Hsp90β interaction by immunoprecipitation/Western blot analyses (A).
Epidermal lysates were prepared as for Western blot analysis. 100 μg of epidermal lysate was incubated with 10 μg of the indicated antibody. The total volume of the lysate/antibody mixture was adjusted to 1,000 μL with lysis buffer to allow for appropriate mixing and rotated at 4° C. overnight. Lysate/antibody mixture was then mixed with 50 μL of protein agarose A/G (sc-2003 Santa Cruz Biotechnology, Santa Cruz, Calif.) for 6 h. Lysate/antibody/protein A/G agarose mixture was then centrifuged at 8,000 g for 10 min to sediment the protein A/G agarose. Pellet was washed with 0.1% tween in PBS and then sedimented at 8,000 g for 10 min three times to wash any non-specific binding from the pellet. After three washes the immunoprecipite was then boiled for 5 min in 20 μL Protein Loading Buffer Blue (Cat # EC-886, National Diagnostics, Atlanta, Ga.). Immunoprecipitates were then treated as in Western Blot analysis above.

UVR-induced SCC [6] = experiment: UVR-induced development of SCC in PKCε overexpressing transgenic FVB/N mice and wild-type littermates; type: in vivo
Experimental: (§3) The PKCε-overexpressing transgenic (TG) and wildtype FVB/N mice (6-7 week old) were exposed to UVR. Mice were exposed to UVR (1.8 kJ/m2) three times weekly (Monday, Wednesday and Friday). The mice in the vehicle group received topical treatment of 200 μl vehicle (DMSO:acetone: 1:40 v/v) before and after UVR each exposure. […] Carcinomas were recorded grossly as downward-invading lesions, which were confirmed histologically. […] There were 11 mice in each group.
(§4) SKH1 hairless mice were purchased from Charles River Laboratories (Wilmington, Mass.). PKCε transgenic mice were generated as described previously (Reddig et al., 2000). The UVR source was Kodacel-filtered FS-40 sunlamps (approximately 60% UV-B and 40% UV-A). Mice were exposed to UVR from a bank of six Kodacel-filtered sunlamps. UVR dose was routinely measured using UVX-radiometer.

UVR-induced SCC [7] = experiment: UVR-induced development of SCC in SKH-1 hairless mice (tumor induction experiment); type: in vivo
Experimental: as §1, §3, §4, §2

[8] = test system: MMP-2, MMP-9, Collagen IV, Hsp70; experiment: Skin expression of MMPs, collagen IV, Hsp70 and PCNA after UVR (Western blot); type: in vivo; conditions: SKH1 mice
Experimental: Groups of SKH1 mice were exposed to UVR (2 kJ/m2) three times (Monday, Wednesday, Friday, and Monday) weekly for 6 and 12 weeks. […] Mice were sacrificed at 24 hours after the last UVR treatment. […] To determine morphological and biochemical alteration in skin, the two layers of skin (epidermis and dermis) were isolated separately for analysis of the indicated protein by the western blot analysis.
Mouse skin was excised and scraped to remove subcutaneous fat. The epidermis was scraped off on an ice-cold glass plate, homogenized in lysis buffer [50 mmol/L HEPES, 150 mmol/L NaCl, 10% glycerol, 1% Triton X-100, 1.5 mmol/L MgCl2, 10 μg/m aprotinin, 10 μg/m leupeptin, 1 mmol/L phenylmethylsulfonyl fluoride (PMSF), 200 μmol/L Na3VO4, 200 μmol/L NaF, and 1 mmol/L EGTA (final pH 7.5)]. The homogenate was centrifuged at 14,000 g for 30 min at 4° C. Epidermal cell lysate proteins were fractionated on 10% Criterion™ pre-cast SDS-polyacrylamide gels (Bio-Rad Laboratories, Hercules, Calif.). The protein was transferred to 0.45 μm Hybond-P polyvinylidene difluoride (PVDF) transfer membrane (Amersham Life Sciences, Piscataway, N.J.). The membrane was then incubated with the indicated antibody followed by a horseradish peroxidase secondary antibody (Thermo Scientific), and the detection signal was developed with Amersham's enhanced chemiluminescence reagent and using FOTO/Analyst Luminary Work Station (Fotodyne Inc.). The Western blots were quantitated by densitometric analysis using Totallab® Nonlinear Dynamic Image analysis software (Nonlinear USA, Inc., Durham, N.C.).

UVR-induced hyperplasia [9] = experiment: 17AAG effect on UVR-induced hyperplasia / epidermal thickness; type: in vivo; conditions: SKH1 mice, 500 nmol topical after each UVR exposure, 24 hr and 48 hr after fourth UVR, p<0.01
Experimental: Groups of SKH1 mice were exposed to UVR (2 kJ/m2) three times (Monday, Wednesday, Friday, and Monday) weekly for 6 and 12 weeks. […] Mice were sacrificed at 24 hours after the last UVR treatment. […] For histochemistry, skin specimens were fixed in 10% neutral buffered formalin for 24 hours and embedded in paraffin.
In this experiment, groups of SKH1 hairless mice were exposed either four times to UVR (4 kJ/m^2, Monday, Wednesday, Friday, and Monday) or for 6 and 12 weeks (2 kJ/m^2, thrice weekly, Monday, Wednesday, Friday). […] The mice were sacrificed at 24 hr and 48 hr after the fourth UVR exposure. The, dorsal skin was removed and fixed in 10% formalin for the analyses of epidermal hyperplasia.

[10] = cited from earlier work
[11] = in vivo; cited from earlier work
human Hsp90 = conditions: cited from earlier work
[12] = FVB mice, single topical application, 6 hr after treatment
[13] = SKH-1 hairless mice, 17AAG applied post each UVR exposure only
[14] = 500 nmol topical after each UVR, 6 and 12 weeks
[15] = both mice, 24 hr and 48 hr post-UVR

Compound: COC1=C2C[C@@H](C)C[C@H](OC)[C@H](O)[C@@H](C)/C=C(\C)[C@H](OC(N)=O)[C@@H](OC)/C=C\C=C(/C)C(=O)NC(=CC1=O)C2=O [Geldanamycin]
- liver toxicity [1]: liver toxicity

Compound: CC1(C)CC(=O)c2c(C(F)(F)F)nn(-c3ccc(C(N)=O)c(N[C@H]4CC[C@H](O)CC4)c3)c2C1 [SNX-2112]
- Effect on Hyperplasia, Mice 2 or Slide 2, 24 Hr. post UVR (UVR-induced hyperplasia [2]): +++
- Effect on Hyperplasia, Mice 2 or Slide 2, 48 Hr. post UVR (UVR-induced hyperplasia [2]): +++
- effect on UVR-induced hyperplasia (Table 3) (UVR-induced hyperplasia [2]; mouse 1, 24 hr and 48 hr post-UVR): no effect
- effect on UVR-induced hyperplasia (Table 3) (UVR-induced hyperplasia [2]; mouse 2, 24 hr and 48 hr post-UVR): positive effect

Compound: C=CCNC1=C2C[C@@H](C)C[C@H](OC)[C@H](O)[C@@H](C)/C=C(\C)[C@H](OC(N)=O)[C@@H](OC)/C=C\C=C(/C)C(=O)NC(=CC1=O)C2=O [17AAG, 17-allylamino-demethoxygeldanamycin]
- higher affinity for Hsp90 derived from tumor cells compared to Hsp90 from normal cells (Hsp90): 100 fold
- PKCε expression level ([3]; 500 nmol topical before and after one UVR exposure, 24 hours post-UVR (FIG. 3A input)): did not appreciably affect
- Stat3, pStat3Ser727, pStat3Tyr705 and pAktser473 expression levels ([3]; topical before and after one UVR exposure, 24 hours post-UVR): inhibited
- Hsp70 level (PKCε, Hsp90β, Hsp70): increase
- Hsp90β and PKCε expression levels (PKCε, Hsp90β, Hsp70): inhibition
- Half-life ([4]; administered intravenous or orally, literature reports): 3 to 4 h
- bioavailability ([4]; given intraperitoneally): excellent
- bioavailability ([4]; given orally): modest
- half-life of topically applied 17AAG ([5]; 500 nmol in DMSO:acetone 1:40 on skin, inferred from decline at 24 hours): short
- epidermal 17AAG level [5, 12]: detectable
- serum 17AAG level [5, 12]: detectable
- serum and epidermal 17AAG levels ([5]; SKH-1 and FVB mice, 24 hours post-17AAG treatment): lowest
- time of maximum serum 17AAG level post topical application ([5]; SKH-1 hairless mice, topical 500 nmol with three weekly UVR exposures for 25 weeks): 1 h
- UVR-induced PKCε-Hsp90β interaction (Hsp90β-PKCε interaction): suppressed
- UVR-induced development of SCC (UVR-induced SCC [6]; PKCε overexpressing transgenic FVB/N mice, topical 500 nmol before and after each UVR, p=0.036): significantly inhibited
- UVR-induced development of SCC (UVR-induced SCC [6]; wild-type and PKCε overexpressing transgenic FVB/N mice, topical, p<0.01): significantly (p<0.01) inhibited
- UVR-induced development of SCC (UVR-induced SCC [6]; wild-type littermates (FVB/N), topical 500 nmol before and after each UVR, p=0.018): significantly inhibited
- SCC incidence (UVR-induced SCC [7]; SKH hairless mice, 500 nmol topical before and after each UVR exposure): significantly (p=0.038) inhibited
- change in SCC latency (UVR-induced SCC [7]; SKH hairless mice, 500 nmol topical before and after each UVR exposure (1.8 kJ/m2, three times weekly)): 17 weeks
- increase in SCC latency (UVR-induced SCC [7]; [13]): 20 weeks
- inhibition of SCC incidence (UVR-induced SCC [7]; [13]): > 50%
- UVR-induced hyperplasia in uninvolved dorsal skin (UVR-induced SCC [7]; end of SCC experiment, SKH hairless mice (FIG. 5C)): inhibition
- expression level of MMP-2, MMP-9, collagen IV [8, 14]: decrease
- expression of Hsp70 [8, 14]: increase
- UVR-induced proliferative marker PCNA ([8]; topical): inhibited
- Effect on Hyperplasia, Mice 1 or Slide 1, 24 Hr. post UVR (UVR-induced hyperplasia [2]): +++
- Effect on Hyperplasia, Mice 1 or Slide 1, 48 Hr. post UVR (UVR-induced hyperplasia [2]): +++
- Effect on Hyperplasia, Mice 2 or Slide 2, 24 Hr. post UVR (UVR-induced hyperplasia [2]): +++
- Effect on Hyperplasia, Mice 2 or Slide 2, 48 Hr. post UVR (UVR-induced hyperplasia [2]): +++
- effect on UVR-induced hyperplasia (Table 3) (UVR-induced hyperplasia [2]; [15]): positive effect
- UVR-induced hyperplasia (epidermal thickness) (UVR-induced hyperplasia [9]): inhibited
- solubility in water or organic solvent, such as DMSO and ethanol, compared with Geldanamycin [10]: higher

Compound: CCNC(=O)c1noc(-c2cc(C(C)C)c(O)cc2O)c1-c1ccc(CN2CCOCC2)cc1 [NVPAU922]
- effect on UVR-induced hyperplasia (Table 3) (UVR-induced hyperplasia [2]; [15]): slightly negative effect

Compound: CO[C@H]1/C=C\C=C(/C)C(=O)NC2=CC(=O)C(NCCN(C)C)=C(C[C@@H](C)C[C@H](OC)[C@H](O)[C@@H](C)/C=C(\C)[C@@H]1OC(N)=O)C2=O.Cl [17DMAG]
- oral bioavailability [11]: excellent
- potency against human Hsp90 relative to 17-AAG (human Hsp90): ~2 times

Compound: CCNC(=O)c1cc2c(-c3cc(OCCN4CCCC4)c(Cl)cc3Cl)nc(N)nc2[nH]1 [NPVBEP800]
- Effect on Hyperplasia, Mice 1 or Slide 1, 24 Hr. post UVR (UVR-induced hyperplasia [2]): +++
- Effect on Hyperplasia, Mice 1 or Slide 1, 48 Hr. post UVR (UVR-induced hyperplasia [2]): +++
- Effect on Hyperplasia, Mice 2 or Slide 2, 24 Hr. post UVR (UVR-induced hyperplasia [2]): +++
- Effect on Hyperplasia, Mice 2 or Slide 2, 48 Hr. post UVR (UVR-induced hyperplasia [2]): +++
- effect on UVR-induced hyperplasia (Table 3) (UVR-induced hyperplasia [2]; [15]): positive effect
